The text below walks through data of article PMC10724690, “Deciphering specificity and cross-reactivity in tachykinin NK1 and NK2 receptors” (The Journal of Biological Chemistry, 2023).

Where no end group is shown, it is not given here.

In general, EC50 refers to the midpoint of the concentration-response curve. The low end stands for greater potency, the high end for weaker potency.

The target in test [1] is T1, NK2R (Homo sapiens, UniProt P21452).
T1 construct: host or cells: COS7
T1 sequence (P21452 1-398): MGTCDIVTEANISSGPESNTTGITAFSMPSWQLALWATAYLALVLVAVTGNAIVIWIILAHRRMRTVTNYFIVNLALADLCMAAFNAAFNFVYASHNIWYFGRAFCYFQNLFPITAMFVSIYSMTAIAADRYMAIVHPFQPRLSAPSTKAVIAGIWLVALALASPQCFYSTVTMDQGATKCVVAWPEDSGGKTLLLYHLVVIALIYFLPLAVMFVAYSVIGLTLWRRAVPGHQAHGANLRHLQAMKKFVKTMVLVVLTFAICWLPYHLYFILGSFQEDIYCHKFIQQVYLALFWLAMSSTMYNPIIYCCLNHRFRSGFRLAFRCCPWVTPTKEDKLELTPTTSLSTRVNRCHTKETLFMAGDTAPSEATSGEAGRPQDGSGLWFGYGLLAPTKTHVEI
As to the kind of experiment: IP3 (IP accumulation) assay, wildtype NK2R. It counts as cell-based. The following applies: for Emax: Fig 3a, alanine scan of NKA, dose response, IP accumulation ([3H]inositol, SPA) in transfected COS7 cells, 10 mM LiCl, 150 min 37 °C, four-parameter fit. On the procedure: (§1) COS7 cells (derived from African green monkey kidney fibroblast and originally bought from ThermoFisher) were maintained in Dulbecco´s Modified Eagle´s Medium 1885 with GlutaMAX supplemented with 10% fetal bovine serum (Sigma-Aldrich), 100 units/ml penicillin and 100 μg/ml streptomycin at 37 °C with 10% CO2. COS7 cells were plated in either clear-, white-, or white with clear bottom 96-well plates that were coated with poly-D-lysine (Sigma-Aldrich) 30 min prior to cell seeding (20.000 cells/well). The following day plates were transiently transfected using calcium precipitation with 200 ng/well DNA in a culture medium with the addition of 100 μM (final concentration) Chloroquine. Transfection was stopped 5 h later with the addition of a fresh maintenance medium. Fig. […] COS7 cells seeded in clear 96-well plates were incubated with 0.5 μCi/ml myo [3H]inositol (PerkinElmer) in 100 μl growth medium over night following the transfection. The subsequent day cells were washed twice with 200 μl/well HBSS (GIBCO, Life Technologies) and pre-incubated for 5 min at 37 °C with 100 μl/well HBSS buffer supplemented with 10 mM LiCl. Ligand addition was followed by 150 min incubation at 37 °C. To stop ligand incubation, cells were lysed with 40 μl 10 mM formic acid followed by 30 min incubation on ice. 35 μl of the lysate was transferred to white 96-well plates together with 60 μl of 1:8 diluted YSi SPA scintillation beads (PerkinElmer). Plates were sealed and vigorously shaken for 15 min followed by 5 min centrifugation at 1500 rpm. Measurements (scintillation) were recorded on a Microbeta (PerkinElmer) after a 4 h delay and determinations were made in duplicates. All dose-response curves have been calculated using Prism 10 software (GraphPad Software) non-linear regression with four parameters. All data are shown as mean ± SEM unless stated otherwise and consist of two technical replicates from three biological replicates.

In test [2] the target is T2, NK1R-R177Q (Homo sapiens, UniProt P25103, R177Q).
T2 construct: host or cells: COS7
As to the kind of experiment: BRET-based cAMP assay, NK1R-R177Q. Particulars: COS-7. The format is cell-based. As for the experimental part: (§2) COS7 cells (derived from African green monkey kidney fibroblast and originally bought from ThermoFisher) were maintained in Dulbecco´s Modified Eagle´s Medium 1885 with GlutaMAX supplemented with 10% fetal bovine serum (Sigma-Aldrich), 100 units/ml penicillin and 100 μg/ml streptomycin at 37 °C with 10% CO2. COS7 cells were plated in either clear-, white-, or white with clear bottom 96-well plates that were coated with poly-D-lysine (Sigma-Aldrich) 30 min prior to cell seeding (20.000 cells/well). The following day plates were transiently transfected using calcium precipitation with 200 ng/well DNA in a culture medium with the addition of 100 μM (final concentration) Chloroquine. Transfection was stopped 5 h later with the addition of a fresh maintenance medium. Fig. […] The intracellular level of cAMP was monitored in real-time using bioluminescence resonance energy transfer (BRET). This was achieved by implementing a construct consisting of a cAMP binding protein (Exchange protein activated by cAMP (Epac)) which has been flanked by a BRET pair consisting of Renilla luciferase (Rluc) and yellow fluorescent protein (YFP). […] The BRET signal was calculated as the ratio of emission intensity at 535 nm (citrine) to the emission intensity at 475 nm (luciferase). […] All dose-response curves have been calculated using Prism 10 software (GraphPad Software) non-linear regression with four parameters. […]

The next test concerns the target T3, NK1R-R177K (Homo sapiens, UniProt P25103, R177K).
T3 construct: host or cells: COS7
In words: BRET-based cAMP assay, NK1R-R177K. The format is cell-based. Particulars: COS-7. As for the experimental part: as §2

Test [3] addresses T4, NK1R (Homo sapiens, UniProt P25103).
T4 construct: host or cells: COS7
In words: BRET-based cAMP assay, wildtype NK1R. The following applies: COS-7, Fig 7d, NK1R WT, ligand NKA (by identity with Fig 5b values). It counts as cell-based. On the procedure: as §2
A general note: Bioluminescence resonance energy transfer reports proximity on the nanometre scale.

The target in test [4] is T4, NK1R. In words: IP3 (IP accumulation) assay, wildtype NK1R. It counts as cell-based. As for the experimental part: as §1, with “Ligand addition was followed by 150 min incubation at 37 °C. To stop ligand incubation, cells were lysed with 40 μl 10 mM formic acid followed by 30 min incubation on ice. 35 μl of the lysate was transferred to white 96-well plates together with 60 μl of 1:8 diluted YSi SPA scintillation beads (PerkinElmer). Plates were sealed and vigorously shaken for 15 min followed by 5 min centrifugation at 1500 rpm.” left out, “All data are shown as mean ± SEM unless stated otherwise and consist of two technical replicates from three biological replicates.” left out

The target of test [5] is T2, NK1R-R177Q. In words: IP3 activation assay, NK1R-R177Q. The format is cell-based. Particulars: COS-7. As for the experimental part:
as §1, with “Ligand addition was followed by 150 min incubation at 37 °C. To stop ligand incubation, cells were lysed with 40 μl 10 mM formic acid followed by 30 min incubation on ice. 35 μl of the lysate was transferred to white 96-well plates together with 60 μl of 1:8 diluted YSi SPA scintillation beads (PerkinElmer). Plates were sealed and vigorously shaken for 15 min followed by 5 min centrifugation at 1500 rpm.” left out, “All data are shown as mean ± SEM unless stated otherwise and consist of two technical replicates from three biological replicates.” left out

For test [6], the target named is T1, NK2R. Particulars: ref [19], cited from earlier work. The text has this:
In sharp contrast, NKA-D4 and NKA6-10 are found to be critical for activity.

T4 sequence (P25103 whole entry): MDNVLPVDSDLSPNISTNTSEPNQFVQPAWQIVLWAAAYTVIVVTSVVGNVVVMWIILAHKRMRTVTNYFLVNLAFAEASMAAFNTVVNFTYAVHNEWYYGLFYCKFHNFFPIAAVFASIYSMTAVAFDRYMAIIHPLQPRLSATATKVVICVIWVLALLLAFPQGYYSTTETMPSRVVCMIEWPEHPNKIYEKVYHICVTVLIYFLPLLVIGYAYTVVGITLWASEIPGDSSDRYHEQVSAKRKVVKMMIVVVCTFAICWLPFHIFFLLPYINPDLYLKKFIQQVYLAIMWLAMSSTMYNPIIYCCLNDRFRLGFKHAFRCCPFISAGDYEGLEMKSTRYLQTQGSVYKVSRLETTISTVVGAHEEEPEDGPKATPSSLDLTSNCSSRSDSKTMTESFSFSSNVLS
T2 sequence (P25103 whole entry R177Q): as the sequence (P25103 whole entry) above, with R177Q counted along it
T3 sequence (P25103 whole entry R177K): as the sequence (P25103 whole entry) above, with R177K counted along it

`CSCC[C@H](NC(=O)[C@H](CC(C)C)NC(=O)CNC(=O)[C@@H](NC(=O)[C@H](Cc1ccccc1)NC(=O)[C@H](CO)NC(=O)[C@H](CC(=O)O)NC(=O)[C@@H](NC(=O)[C@H](CCCCN)NC(=O)[C@H](C)N)[C@@H](C)O)C(C)C)C(N)=O` [Ala1]: the EC50 on NK2R [1] is 0.715 nM.

As to `CSCC[C@H](NC(=O)[C@H](CC(C)C)NC(=O)CNC(=O)[C@@H](NC(=O)[C@H](Cc1ccccc1)NC(=O)[C@H](CO)NC(=O)[C@H](CC(=O)O)NC(=O)[C@@H](NC(=O)[C@H](CCCCN)NC(=O)[C@@H](N)Cc1c[nH]cn1)[C@@H](C)O)C(C)C)C(N)=O` [NKA, neurokinin A], the Emax at NK1R-R177Q [2] came to 13.1%; at NK1R-R177K it was 10.7%; at NK1R [3], 109%; on NK1R [4] (COS-7, Fig 7c, IP3 activation assay, NK1R WT, ligand NKA (by identity with Fig 5a values)), 100%; at NK1R [4] (COS-7, Fig 5a, IP3 assay, NK1R WT in COS7 cells), 100%; on NK1R-R177Q [5] it was 59.3%.

In the test with NK2R [1], “Ala4: NKA variant of the alanine scan, alanine in position 4 (Asp) (HKTASFVGLM; ends and bridges not checked; UniProt P20366 98-107, looked up, variant D4A)” came in with an Emax of 1066.

Take “Ala7: NKA variant of the alanine scan, alanine in position 7 (HKTDSFAGLM; ends and bridges not checked; UniProt P20366 98-107, looked up, variant V7A)”: in the test with NK2R [1], the Emax is given as 178.

Regarding “Ala9: NKA variant of the alanine scan, alanine in position 9 (HKTDSFVGAM; ends and bridges not checked; UniProt P20366 98-107, looked up, variant L9A)”, the Emax with NK2R [1] is 136.

For the compound HATDSFVGLM-NH2 [Ala2], a half-maximal response on NK2R [1] (EC50) required 0.68 nM.

In the case of HKADSFVGLM-NH2 [Ala3], the response on NK2R [1] was half-maximal at 0.598 nM (EC50).

On NK2R [1], HKTDAFVGLM-NH2 [Ala5] gave an EC50 of 25.9 nM.

Take HKTDSFVGLA-NH2 [Ala10]: the midpoint of the response at NK2R [1], the EC50, lay at 31.9 nM.

Consider KDSFVGL(γ-lactam)M-NH2 [GR64349], for which the selectivity result at NK2R [6] (NK2R agonist selectivity) was “most selective NK2R agonist reported so far”. In addition, the agonist character result at NK2R [6] is recorded as “full agonist”.
